One compound from patent publication EP0655506B1 (priority 1994, dated 1995) can be followed below.

Molecules are shown by their SMILES.

Experiment [1] deals with T1, Taq DNA polymerase (unmodified DNA polymerase from Thermus aquaticus) (Thermus aquaticus, UniProt P19821).
T1 construct: to the gene that produces the full length Taq DNA polymerase; made in house
Nature of the experiment: Inhibition of DNA synthesis on synthetic Primer-Template A, competition of dATP and ddATP (Example 9). Format: biochemical. Particulars: in the presence of 10 µM dATP, 70°C, read-out: [ddATP] for 50% inhibition. The method, then: (§1) In this example the competition between a dNTP and a ddNTP is assayed for use at a single site in a synthetic primer-template. This assay differs from the others in that it limits the comparison of the use of the two substrates to a single site, avoiding the complication of sequence-specific variability in discrimination. […]
(§2) Each reaction mixture contains 25 pmoles each of primer and template. […] The mixtures are incubated at 37°C for 1 min (70°C for thermophilic DNA polymerases), and the reactions are initiated by the addition of 5 µl aliquots (0.01 to 1 unit) of the DNA polymerase being analyzed diluted in 20 mM TrisHCl, pH 7.5, 10 mM 2-mercaptoethanol and 0.05% bovine serum albumin. […] The disks are then dried under a heat lamp and counted in a scintillation counter in 5 ml of fluor (Opti-Fluor O, Packard). From the amount of radioactivity on each disk, the amount […] incorporated was determined. […]
(§3) All reactions are carried out with a constant amount of the DNA polymerase being analyzed; the amount of DNA polymerase should be sufficient to replicate 50% of the total dCMP residues in the single-stranded region of the template in the 10 min incubation in the presence of 10 µM dATP and the absence of ddATP. […]

The target of experiment [2] is T2, E. coli DNA polymerase I (large fragment, Klenow fragment), wild type (Escherichia coli, UniProt P00582).
T2 construct: The large fragment of E. coli DNA polymerase I, commonly called the Klenow fragment; made in house
T2 sequence (P00582 324-928): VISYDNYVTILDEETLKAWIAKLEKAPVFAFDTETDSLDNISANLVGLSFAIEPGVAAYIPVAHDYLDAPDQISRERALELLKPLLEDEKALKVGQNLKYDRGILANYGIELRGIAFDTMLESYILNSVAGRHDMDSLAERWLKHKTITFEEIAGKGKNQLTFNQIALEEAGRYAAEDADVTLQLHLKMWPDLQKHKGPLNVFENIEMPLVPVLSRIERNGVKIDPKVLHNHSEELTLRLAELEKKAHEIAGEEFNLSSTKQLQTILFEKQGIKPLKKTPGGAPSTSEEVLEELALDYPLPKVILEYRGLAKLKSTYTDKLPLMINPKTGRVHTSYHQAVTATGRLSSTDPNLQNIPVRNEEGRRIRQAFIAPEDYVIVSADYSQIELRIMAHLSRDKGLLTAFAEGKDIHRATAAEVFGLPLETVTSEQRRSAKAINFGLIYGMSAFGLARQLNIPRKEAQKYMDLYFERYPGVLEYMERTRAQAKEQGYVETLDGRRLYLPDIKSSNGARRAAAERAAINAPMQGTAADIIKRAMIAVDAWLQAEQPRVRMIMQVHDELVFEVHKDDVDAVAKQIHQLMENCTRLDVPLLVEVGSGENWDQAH
The description is as above. Format: biochemical. Particulars: in the presence of 10 µM dATP, 37°C, read-out: [ddATP] for 50% inhibition. The method, then: as §1, §2, §3

T1 sequence (P19821 whole entry): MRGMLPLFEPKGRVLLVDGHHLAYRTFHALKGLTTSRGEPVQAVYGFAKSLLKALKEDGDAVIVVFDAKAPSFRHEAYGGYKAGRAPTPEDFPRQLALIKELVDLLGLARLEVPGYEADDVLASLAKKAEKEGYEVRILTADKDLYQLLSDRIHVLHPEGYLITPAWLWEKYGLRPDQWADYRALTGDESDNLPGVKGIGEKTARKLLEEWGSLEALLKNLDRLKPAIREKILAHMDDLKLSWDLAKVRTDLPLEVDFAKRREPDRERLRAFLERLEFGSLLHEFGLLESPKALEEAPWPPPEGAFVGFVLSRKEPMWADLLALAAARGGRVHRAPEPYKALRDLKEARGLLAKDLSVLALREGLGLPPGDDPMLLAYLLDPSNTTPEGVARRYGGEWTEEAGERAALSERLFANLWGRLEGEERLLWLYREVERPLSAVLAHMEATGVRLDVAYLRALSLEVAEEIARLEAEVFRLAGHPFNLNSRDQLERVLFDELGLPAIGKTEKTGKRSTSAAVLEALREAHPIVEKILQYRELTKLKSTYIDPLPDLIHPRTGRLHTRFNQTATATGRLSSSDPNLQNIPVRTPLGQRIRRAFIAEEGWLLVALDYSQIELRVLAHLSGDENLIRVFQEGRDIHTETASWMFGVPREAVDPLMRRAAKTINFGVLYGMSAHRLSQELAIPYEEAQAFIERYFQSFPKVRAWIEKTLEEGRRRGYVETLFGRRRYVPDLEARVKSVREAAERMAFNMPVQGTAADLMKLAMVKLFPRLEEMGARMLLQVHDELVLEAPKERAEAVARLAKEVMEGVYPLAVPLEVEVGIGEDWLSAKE

Consider `Nc1ncnc2c1ncn2[C@H]1CC[C@@H](COP(=O)(O)OP(=O)(O)OP(=O)(O)O)O1` [ddATP], for which the IC50 in experiment [1] and in experiment [2] was over 500 µM each time.
